Experimental data reported in US20090192135A1, “Human Niemann Pick C1-Like 1 Gene (NPC1L1) Polymorphisms and Methods of Use Thereof” (SCHERING CORPORATION, priority 2005, published 2009).

Biological target: T1, NPC1L1 (Homo sapiens, UniProt Q9UHC9)
T1 construct: from tissue; host or cells: small intestine of hypercholesterolemic patients (in vivo, clinical trial)
T1 sequence (Q9UHC9 22-1332 isoform Q9UHC9-2 limits assumed): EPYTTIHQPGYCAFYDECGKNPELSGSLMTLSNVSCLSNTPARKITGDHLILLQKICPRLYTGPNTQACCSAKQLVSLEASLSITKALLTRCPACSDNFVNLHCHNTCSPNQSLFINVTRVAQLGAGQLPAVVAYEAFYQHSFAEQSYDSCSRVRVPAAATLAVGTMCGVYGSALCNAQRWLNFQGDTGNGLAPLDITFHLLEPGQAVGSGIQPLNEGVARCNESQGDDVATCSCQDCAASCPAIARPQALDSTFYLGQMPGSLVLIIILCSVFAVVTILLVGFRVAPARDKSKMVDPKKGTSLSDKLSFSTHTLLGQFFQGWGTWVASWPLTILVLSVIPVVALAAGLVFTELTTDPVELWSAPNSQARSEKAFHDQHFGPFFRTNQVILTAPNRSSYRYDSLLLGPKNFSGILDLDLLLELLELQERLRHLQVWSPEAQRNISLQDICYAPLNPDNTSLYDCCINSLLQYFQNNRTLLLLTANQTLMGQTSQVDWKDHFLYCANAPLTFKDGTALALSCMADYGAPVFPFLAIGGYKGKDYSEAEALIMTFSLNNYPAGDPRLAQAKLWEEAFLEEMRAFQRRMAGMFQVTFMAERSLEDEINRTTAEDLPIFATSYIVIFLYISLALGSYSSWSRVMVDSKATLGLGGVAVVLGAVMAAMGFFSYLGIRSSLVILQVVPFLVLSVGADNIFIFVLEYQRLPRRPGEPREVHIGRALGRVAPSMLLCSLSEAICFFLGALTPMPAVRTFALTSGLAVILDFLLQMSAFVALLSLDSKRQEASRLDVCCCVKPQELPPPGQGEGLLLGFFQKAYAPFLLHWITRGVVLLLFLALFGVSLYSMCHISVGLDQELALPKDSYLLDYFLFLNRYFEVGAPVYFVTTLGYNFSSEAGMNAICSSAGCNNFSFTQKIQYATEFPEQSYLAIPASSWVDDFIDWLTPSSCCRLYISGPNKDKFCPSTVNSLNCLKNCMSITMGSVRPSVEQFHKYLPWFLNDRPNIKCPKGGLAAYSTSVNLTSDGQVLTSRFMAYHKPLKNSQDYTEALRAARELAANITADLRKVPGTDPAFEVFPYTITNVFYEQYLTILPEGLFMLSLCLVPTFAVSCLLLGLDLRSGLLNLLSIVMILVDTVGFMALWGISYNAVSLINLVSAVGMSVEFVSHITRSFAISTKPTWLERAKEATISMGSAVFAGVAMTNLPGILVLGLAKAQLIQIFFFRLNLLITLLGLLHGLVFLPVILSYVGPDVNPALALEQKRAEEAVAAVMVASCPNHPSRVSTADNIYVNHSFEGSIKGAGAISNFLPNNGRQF
Test: EASE trial: LDL-C response to six weeks of ezetimibe 10 mg/day added to stable statin therapy, analysed by NPC1L1 genotype/haplotype
Format: in vivo
Conditions: for Least-Squares (adjusted) Mean (Stderr), percent change in LDL-C: extreme responders; for Least-Squares adjusted Mean (n/Std error), percent change from baseline LDL-C: EASE cohort N = 1195; for Least-Squares (adjusted) Mean (n,/Stderr), percent change in LDL-C: Extreme responders (<10th or >90th percentile) N = 239
Method: Genotyping assays were developed for a number of novel and known common variants with minor allele frequencies greater than 4% that were identified in Example 1. Genetic association analysis was performed with these SNPs in a clinical trial cohort (EASE), described below, to assess whether DNA sequence variants in NPC1L1 are associated with changes in the levels of a variety of plasma cholesterol components in hypercholesterolemia patients in response to pharmacotherapy with ezetimibe and statins as compared to patients treated with a statin and placebo.
To study whether variations in NPC1L1 were associated with response to ezetimibe added to statin therapy, a study population was derived from the Ezetimibe Add-On to Statin for Effectiveness (EASE) Trial (Pearson et al., (2005) Mayo Clinic Proceedings, In Press). The EASE trial was a community-based, randomized, double-blind, placebo controlled study to evaluate the effects of six weeks of ezetimibe, 10 mg/day, added on to a stable regimen of statin therapy, on lipid biomarkers in hypercholesterolemic patients whose LDL-C levels exceeded the National Cholesterol Education Program (NCEP) Adult Treatment Panel (ATP) m guidelines for their coronary heart disease (CHD) risk category. At enrollment, patients taking a stable dose of statin (any dose, any brand) and following a NCEP Step 1 diet or similar cholesterol-lowering diet for at least six weeks prior to entry into the study were randomized to either the ezetimibe (n=2020, 2009 received the treatment) or placebo (n=1010, 1009 received the treatment) arm. From the ezetimibe group, 1208 patients provided consent for genomic analysis and were included in this study. A series of clinical measures corresponding to various cardiovascular risk factors were measured from samples obtained from all trial participants and are summarized by Pearson et al., supra.
Twenty one SNPs from Table 4 (Example 1) were converted to valid genotyping assays, thirteen of which had allele frequencies greater than 2% in all EASE sub-populations. TaqMan Allelic Discrimination assays (Livak, (1999) Genet. Anal. 14:143-49) were performed using Primer Express software and the Assay-by-Design service offered by Applied Biosystems (Foster City, Calif.). […] All probe/primer sets were designed to function using universal reaction and cycling conditions.
The twenty one selected SNPs were genotyped in 1,208 individuals participating in the ezetimibe+statin treatment arm of the EASE trial. A series of clinical measures corresponding to various cardiovascular risk factors were taken on all trial participants (Tables 4a-d). Thirteen selected SNPs genotyped in the EASE cohort were confirmed as having common allele frequencies in this cohort, i.e., an allele frequency of greater than 2% in all EASE sub-populations. […] This could reflect the increased power in the larger EASE cohort to make such detections (see Table 5).
The mean (SD) for total plasma cholesterol, HDL cholesterol (HDL-C), and LDL cholesterol (LDL-C) was 211.0 (34.9), 48.6 (11.5), and 129.1 (30.0) mg/dL, respectively (Pearson et al., supra). […] The distribution of these measurements was similar in the subjects enrolled in this genetic study (Pearson et al., supra). […] No significant associations were found between these response predictive variables and any of the tagging SNPs.
Genetic association analysis was carried out in the EASE cohort with LDL-C response to ezetimibe treatment considered as the primary outcome variable. Individual SNPs, haplotypes, and haplotype combinations were the principal explanatory variables used in the analyses. General linear models were used to estimate the effects of genotypes, haplotypes, and diplotypes on the LDL-C response phenotype. Baseline LDL-C levels, sex, age, and race were investigated to determine if they gave rise to significant effects. Baseline LDL-C levels associated with significant effects in all models and were therefore included in all analyses. […]

[1] = Caucasian ethnic subgroup, g.-18C > A C/A

## O=C1[C@H](CC[C@H](O)c2ccc(F)cc2)[C@@H](c2ccc(O)cc2)N1c1ccc(F)cc1 [ezetimibe, 1-(4-fluorophenyl)-3(R)-[3-(4-fluorophenyl)-3(S)-hydroxypropyl]-4(S)-(4-hydroxyphenyl)-2-azetidinone]
[1]
  Least-Squares (adjusted) Mean (Stderr), percent change in LDL-C: −32.81 (3.83) %
  Least-Squares adjusted Mean (Std error), percent change from baseline LDL-C: −28.22 (0.96) %
Caucasian ethnic subgroup, g.1679C > G C/G
  Least-Squares (adjusted) Mean (Stderr), percent change in LDL-C: −26.61 (3.58) %
Caucasian ethnic subgroup, g.1679C > G G/G
  Least-Squares (adjusted) Mean (Stderr), percent change in LDL-C: −39.00 (10.81) %
Caucasian ethnic subgroup, g.-18C > A A/A
  Least-Squares adjusted Mean (Std error), percent change from baseline LDL-C: −27.19 (3.49) %
Caucasian ethnic subgroup, g.-18C > A C/C
  Least-Squares adjusted Mean (Std error), percent change from baseline LDL-C: −24.34 (0.60) %
Caucasian ethnic subgroup, g.-18C > A, 95% CI 1.27 to 4.39
  Odds Ratio, extreme responder association with SNP: 2.36
Caucasian ethnic subgroup, g.-133A > G A/A
  Least-Squares adjusted Mean (Std error), percent change from baseline LDL-C: −26.59 (0.73) %
Caucasian ethnic subgroup, g.-133A > G A/G
  Least-Squares adjusted Mean (Std error), percent change from baseline LDL-C: −24.78 (0.77) %
Caucasian ethnic subgroup, g.-133A > G G/G
  Least-Squares adjusted Mean (Std error), percent change from baseline LDL-C: −22.80 (1.72) %
Caucasian ethnic subgroup, g.1679C > G (L272L) C/C
  Least-Squares adjusted Mean (Std error), percent change from baseline LDL-C: −24.66 (0.65) %
Caucasian ethnic subgroup, g.1679C > G (L272L) C/G
  Least-Squares adjusted Mean (Std error), percent change from baseline LDL-C: −26.58 (0.85) %
Caucasian ethnic subgroup, g.1679C > G (L272L) G/G
  Least-Squares adjusted Mean (Std error), percent change from baseline LDL-C: −28.18 (2.51) %
Caucasian ethnic subgroup, g.19224G > A A/A
  Least-Squares adjusted Mean (Std error), percent change from baseline LDL-C: −31.64 (6.56) %
Caucasian ethnic subgroup, g.19224G > A G/A
  Least-Squares adjusted Mean (Std error), percent change from baseline LDL-C: −24.81 (1.31) %
Caucasian ethnic subgroup, g.19224G > A G/G
  Least-Squares adjusted Mean (Std error), percent change from baseline LDL-C: −25.56 (0.55) %
Caucasian ethnic subgroup, g.19259T > C C/C
  Least-Squares adjusted Mean (Std error), percent change from baseline LDL-C: −24.95 (2.01) %
Caucasian ethnic subgroup, g.19259T > C T/C
  Least-Squares adjusted Mean (Std error), percent change from baseline LDL-C: −25.61 (0.84) %
Caucasian ethnic subgroup, g.19259T > C T/T
  Least-Squares adjusted Mean (Std error), percent change from baseline LDL-C: −25.44 (0.67) %
Caucasian ethnic subgroup, g.28650A > G A/A
  Least-Squares adjusted Mean (Std error), percent change from baseline LDL-C: −24.63 (0.64) %
Caucasian ethnic subgroup, g.28650A > G A/G
  Least-Squares adjusted Mean (Std error), percent change from baseline LDL-C: −26.90 (0.87) %
Caucasian ethnic subgroup, g.28650A > G G/G
  Least-Squares adjusted Mean (Std error), percent change from baseline LDL-C: −26.52 (2.57) %
g.-18C > A A/A
  Least-Squares adjusted Mean (n/Std error), percent change from baseline LDL-C: −27.27 (22/3.61) %
g.-18C > A C/A
  Least-Squares adjusted Mean (n/Std error), percent change from baseline LDL-C: −27.85 (298/0.98) %
  Least-Squares (adjusted) Mean (n,/Stderr), percent change in LDL-C: −33.98 (62/4.05) %
g.-18C > A C/C
  Least-Squares adjusted Mean (n/Std error), percent change from baseline LDL-C: −24.16 (875/0.57) %
  Least-Squares (adjusted) Mean (n,/Stderr), percent change in LDL-C: −16.85 (177/2.40) %
g.-133A > G A/A
  Least-Squares adjusted Mean (n/Std error), percent change from baseline LDL-C: −25.92 (629/0.68) %
g.-133A > G A/G
  Least-Squares adjusted Mean (n/Std error), percent change from baseline LDL-C: −24.58 (477/0.78) %
g.-133A > G G/G
  Least-Squares adjusted Mean (n/Std error), percent change from baseline LDL-C: −22.56 (89/1.80) %
g.1679C > G C/C
  Least-Squares adjusted Mean (n/Std error), percent change from baseline LDL-C: −24.50 (723/0.63) %
g.1679C > G C/G
  Least-Squares adjusted Mean (n/Std error), percent change from baseline LDL-C: −25.77 (417/0.83) %
g.1679C > G G/G
  Least-Squares adjusted Mean (n/Std error), percent change from baseline LDL-C: −28.77 (55/2.29) %
g.19224G > A A/A
  Least-Squares adjusted Mean (n/Std error), percent change from baseline LDL-C: −31.64 (/6.94) %
g.19224G > A G/A
  Least-Squares adjusted Mean (n/Std error), percent change from baseline LDL-C: −25.07 (/1.34) %
g.19224G > A G/G
  Least-Squares adjusted Mean (n/Std error), percent change from baseline LDL-C: −25.11 (/0.53) %
g.19259T > C C/C
  Least-Squares adjusted Mean (n/Std error), percent change from baseline LDL-C: −26.38 (/1.98) %
g.19259T > C T/C
  Least-Squares adjusted Mean (n/Std error), percent change from baseline LDL-C: −25.01 (/0.82) %
g.19259T > C T/T
  Least-Squares adjusted Mean (n/Std error), percent change from baseline LDL-C: −25.07 (/0.64) %
g.28650A > G A/A
  Least-Squares adjusted Mean (n/Std error), percent change from baseline LDL-C: −24.40 (/0.60) %
g.28650A > G A/G
  Least-Squares adjusted Mean (n/Std error), percent change from baseline LDL-C: −26.50 (/0.89) %
g.28650A > G G/G
  Least-Squares adjusted Mean (n/Std error), percent change from baseline LDL-C: −27.19 (/2.65) %
EASE cohort, heterozygous for the minor allele of g.−18C>A (298/1195)
  mean LDL-C change from baseline: 27.8%
EASE cohort, homozygous for the common allele of g.−18C>A (n=875/1195)
  mean LDL-C change from baseline: 24.2%
EASE cohort, homozygous for the minor allele of g.−18C>A (n=22/1195)
  mean change in LDL-C: 27.3%
